We go through 29 molecules from patent publication US11712438B2, “Phenyl derivatives as PGE2 receptor modulators” (IDORSIA PHARMACEUTICALS LTD, priority 2017, dated 2023).

Targets include PTRGER4 (EP4) (Homo sapiens, UniProt P35408); EP2 (Homo sapiens, UniProt P43116); EP4 (Homo sapiens, UniProt P35408).
Common to all, as to experiment: cell-based

Each structure is given as a SMILES string.

Chain of PTRGER4 (EP4) (P35408 whole entry): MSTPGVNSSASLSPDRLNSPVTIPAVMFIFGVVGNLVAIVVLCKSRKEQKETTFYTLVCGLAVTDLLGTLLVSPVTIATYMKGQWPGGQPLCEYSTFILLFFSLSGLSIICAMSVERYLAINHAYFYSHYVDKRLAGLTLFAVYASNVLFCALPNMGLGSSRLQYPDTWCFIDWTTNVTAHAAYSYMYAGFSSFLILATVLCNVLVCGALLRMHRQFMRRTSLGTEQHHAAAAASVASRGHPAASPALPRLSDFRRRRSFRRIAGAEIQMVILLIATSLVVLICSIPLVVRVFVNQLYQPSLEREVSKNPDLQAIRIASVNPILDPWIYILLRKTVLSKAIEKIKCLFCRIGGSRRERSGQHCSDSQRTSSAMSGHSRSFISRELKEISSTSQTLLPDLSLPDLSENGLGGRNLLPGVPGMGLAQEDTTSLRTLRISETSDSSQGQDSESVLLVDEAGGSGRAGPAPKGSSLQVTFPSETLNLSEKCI
Chain of EP4 (P35408 whole entry): as above
Chain of EP2 (P43116 whole entry): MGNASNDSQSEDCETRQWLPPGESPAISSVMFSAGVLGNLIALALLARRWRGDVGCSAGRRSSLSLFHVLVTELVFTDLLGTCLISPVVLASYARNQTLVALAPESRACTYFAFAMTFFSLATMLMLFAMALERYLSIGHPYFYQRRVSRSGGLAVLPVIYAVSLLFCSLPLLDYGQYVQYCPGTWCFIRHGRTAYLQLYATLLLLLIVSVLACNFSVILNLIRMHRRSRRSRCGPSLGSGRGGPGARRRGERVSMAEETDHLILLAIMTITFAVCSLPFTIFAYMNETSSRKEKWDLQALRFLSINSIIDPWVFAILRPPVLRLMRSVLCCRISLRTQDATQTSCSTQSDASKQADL

`COc1cccc(CCNc2cc(-c3cc(C(F)(F)F)c(C(=O)O)s3)ncn2)c1` [Example 63, 5-{6-[2-(3-Methoxy-phenyl)-ethylamino]-pyrimidin-4-yl}-3-trifluoromethyl-thiophene-2-carboxylic acid]: the IC50 against PTRGER4 (EP4) came out at 233 nM; against EP2, 644 nM; at EP4, 105 nM.

On to `Oc1cc(-c2ccc(-c3cc(NCCc4c(F)cc(Br)cc4F)ncn3)cc2)on1` [Example 33, 5-(4-{6-[2-(4-Bromo-2,6-difluoro-phenyl)-ethylamino]-pyrimidin-4-yl}-phenyl)-isoxazol-3-ol], for which the half-maximal inhibitory concentration (IC50) was 156 nM against PTRGER4 (EP4), 1130 nM on EP2 and 149 nM against EP4.

For the molecule `Brc1ccc(CCNc2cc(-c3ccc(Cc4nnn[nH]4)s3)ncn2)cc1` [Example 288, [2-(4-Bromo-phenyl)-ethyl]-{6-[5-(1H-tetrazol-5-ylmethyl)-thiophen-2-yl]-pyrimidin-4-yl}-amine], the values for the IC50 on PTRGER4 (EP4), on EP2 and on EP4 were 1190 nM, 739 nM and 775 nM, respectively.

Turning to `CCOc1cc(-c2cc(NCCc3ccc(Br)cc3)ncn2)sc1-c1noc(NCCO)n1` [Example 141, 2-[3-(5-{6-[2-(4-Bromo-phenyl)-ethylamino]-pyrimidin-4-yl}-3-ethoxy-thiophen-2-yl)-[1,2,4]oxadiazol-5-ylamino]-ethanol], the half-maximal inhibitory concentration (IC50) against PTRGER4 (EP4) turned out to be 8 nM; against EP2 it was 381 nM; against EP4, 168 nM.

For `CCOc1cc(-c2cc(NCCc3ccc(Br)cc3)ncn2)sc1CCc1noc(=O)[nH]1` [Example 144, 3-[2-(5-{6-[2-(4-Bromo-phenyl)-ethylamino]-pyrimidin-4-yl}-3-ethoxy-thiophen-2-yl)-ethyl]-[1,2,4]oxadiazol-5(4H)-one], the values for the IC50 at PTRGER4 (EP4), at EP2 and at EP4 were 126 nM, 1000 nM and 433 nM, respectively.

Regarding `CCOc1cc(-c2cc(NCCc3ccc(OC)cc3)ncn2)sc1C(=O)O` [Example 60, 3-Ethoxy-5-{6-[2-(4-methoxy-phenyl)-ethylamino]-pyrimidin-4-yl}-thiophene-2-carboxylic acid], the results for the 50% inhibitory concentration (IC50) against PTRGER4 (EP4), against EP2 and against EP4 were 139 nM, 376 nM and 81 nM, respectively.

As for `CCOc1cc(-c2cc(NCCc3ccc(Br)cc3)ncn2)sc1C(N)=O` [Example 128, 5-{6-[2-(4-Bromo-phenyl)-ethylamino]-pyrimidin-4-yl}-3-ethoxy-thiophene-2-carboxylic acid amide], the IC50 was 34 nM against PTRGER4 (EP4), 629 nM on EP2 and 235 nM against EP4.

Turning to `CCOc1cc(-c2cc(NCCc3ccc(C)c(C)c3)ncn2)sc1-c1noc(=O)[nH]1` [Example 83, 3-(5-{6-[2-(3,4-Dimethyl-phenyl)-ethylamino]-pyrimidin-4-yl}-3-ethoxy-thiophen-2-yl)-[1,2,4]oxadiazol-5(4H)-one], the IC50 came out at 14 nM against PTRGER4 (EP4), 208 nM on EP2 and 13 nM against EP4.

As to `CCOc1cc(-c2cc(NCCc3cc(OC)cc(OC)c3)ncn2)sc1C(=O)O` [Example 67, 5-{6-[2-(3,5-Dimethoxy-phenyl)-ethylamino]-pyrimidin-4-yl}-3-ethoxy-thiophene-2-carboxylic acid], the 50% inhibitory concentration (IC50) against PTRGER4 (EP4) stood at 261 nM; against EP2, 712 nM; on EP4 it was 245 nM.

For `CCOc1cc(-c2cc(NCCc3ccc(Br)cc3)ncn2)sc1-c1noc(N)n1` [Example 139, {6-[5-(5-Amino-[1,2,4]oxadiazol-3-yl)-4-ethoxy-thiophen-2-yl]-pyrimidin-4-yl}-[2-(4-bromo-phenyl)-ethyl]-amine], the IC50 came to 6 nM against PTRGER4 (EP4), 290 nM against EP2 and 149 nM at EP4.

Take `CCOc1cc(-c2cc(NCCc3ccc(OC)c(Br)c3)ncn2)sc1C(=O)O` [Example 74, 5-{6-[2-(3-Bromo-4-methoxy-phenyl)-ethylamino]-pyrimidin-4-yl}-3-ethoxy-thiophene-2-carboxylic acid]: the IC50 against PTRGER4 (EP4) came out at 90 nM; at EP2, 533 nM; at EP4 it was 33 nM.

`Cc1ccc(CCNc2cc(-c3ccc(C(=O)O)c(OC4CCC4)c3)ncn2)cc1C` [Example 20, 2-Cyclobutoxy-4-{6-[2-(3,4-dimethyl-phenyl)-ethylamino]-pyrimidin-4-yl}-benzoic acid]: the half-inhibitory concentration (IC50) turned out to be 446 nM against PTRGER4 (EP4), 498 nM on EP2 and 574 nM against EP4.

On to `CCOc1cc(-c2cc(NCCc3ccc(N(C)C)cc3F)ncn2)sc1-c1noc(=O)[nH]1` [Example 161, 3-(5-{6-[2-(4-Dimethylamino-2-fluoro-phenyl)-ethylamino]-pyrimidin-4-yl}-3-ethoxy-thiophen-2-yl)[1,2,4]oxadiazol-5(4H)-one], for which the figures for the IC50 on PTRGER4 (EP4), at EP2 and at EP4 were 10 nM, 713 nM and 40 nM, respectively.

Regarding `CCOc1cc(-c2cc(NCCc3cccc(Cl)c3)ncn2)sc1C(=O)O` [Example 77, 5-{6-[2-(3-Chloro-phenyl)-ethylamino]-pyrimidin-4-yl}-3-ethoxy-thiophene-2-carboxylic acid], the values for the IC50 at PTRGER4 (EP4), at EP2 and against EP4 were 121 nM, 415 nM and 108 nM, respectively.

With `CCOc1cc(-c2cc(NCCc3ccc(Br)cc3)ncn2)sc1Cc1noc(=O)[nH]1` [Example 137, 3-(5-{6-[2-(4-Bromo-phenyl)-ethylamino]-pyrimidin-4-yl}-3-ethoxy-thiophen-2-ylmethyl)-[1,2,4]oxadiazol-5(4H)-one], the values for the concentration for half-maximal inhibition (IC50) against PTRGER4 (EP4), against EP2 and against EP4 were 411 nM, 371 nM and 963 nM, respectively.

On to `CCOc1cc(-c2cc(NCCc3ccc(C(F)(F)F)cc3F)ncn2)sc1-c1noc(=O)[nH]1` [Example 93, 3-(3-Ethoxy-5-{6-[2-(2-fluoro-4-trifluoromethyl-phenyl)-ethylamino]-pyrimidin-4-yl}-thiophen-2yl)-[1,2,4]oxadiazol-5(4H)-one], for which the IC50 came to 3 nM against PTRGER4 (EP4), 509 nM at EP2 and 6 nM against EP4.

With `CCOc1cc(-c2cc(NCCc3ccc(Br)cc3)ncn2)sc1-c1noc(C2COC2)n1` [Example 142, [2-(4-Bromo-phenyl)-ethyl]-{6-[4-ethoxy-5-(5-oxetan-3-yl-[1,2,4]oxadiazol-3-yl)-thiophen-2-yl]-pyrimidin-4-yl}-amine], the IC50 at EP2 came out at 700 nM; against EP4 it was 571 nM.

Regarding `O=C(O)c1sc(-c2cc(NCCc3c(F)cc(Br)cc3F)ncn2)cc1OCCO` [Example 32, 5-{6-[2-(4-Bromo-2,6-difluoro-phenyl)-ethylamino]-pyrimidin-4-yl}-3-(2-hydroxy-ethoxy)-thiophene-2-carboxylic acid], the figures for the concentration for half-maximal inhibition (IC50) against EP2 and at EP4 were 55 nM and 30 nM, respectively.

Take `CCOc1cc(-c2cc(NCCc3ccc(Cl)cc3NC)ncn2)sc1-c1noc(=O)[nH]1` [Example 91, 3-(5-{6-[2-(4-Chloro-2-methylamino-phenyl)-ethylamino]-pyrimidin-4-yl}-3-ethoxy-thiophen-2yl)-[1,2,4]oxadiazol-5(4H)-one]: the IC50 on PTRGER4 (EP4) turned out to be 42 nM; against EP2, 2840 nM; against EP4 it was 335 nM.

Turning to `CCOc1cc(-c2cc(NCCc3ccc(Br)cc3N(C)C)ncn2)sc1-c1noc(=O)[nH]1` [Example 109, 3-(5-{6-[2-(4-Bromo-2-dimethylamino-phenyl)-ethylamino]-pyrimidin-4-yl}-3-ethoxy-thiophen-2yl)-[1,2,4]oxadiazol-5(4H)-one], the half-inhibitory concentration (IC50) against EP2 stood at 558 nM; against EP4, 254 nM.

Turning to `CCOc1cc(-c2cc(NCCc3ccc(SC)cc3OC)ncn2)sc1C(=O)O` [Example 4, 3-Ethoxy-5-{6-[2-(2-methoxy-4-methylsulfanyl-phenyl)-ethylamino]-pyrimidin-4-yl}-thiophene-2-carboxylic acid], the IC50 against EP2 stood at 38 nM; at EP4, 5 nM.

Consider `CCOc1cc(-c2cc(NCCc3c(OC)cc(Br)cc3OC)ncn2)ccc1C(=O)O` [Example 52, 4-{6-[2-(4-Bromo-2,6-dimethoxy-phenyl)-ethylamino]-pyrimidin-4-yl}-2-ethoxy-benzoic acid], for which the figures for the IC50 at EP2 and on EP4 were 343 nM and 626 nM, respectively.

Regarding `COc1cc(-c2cc(NCCc3ccc(Br)cc3)ncn2)ccc1O` [Example 10, 4-{6-[2-(4-Bromo-phenyl)-ethylamino]-pyrimidin-4-yl}-2-methoxy-phenol], the values for the IC50 at EP2 and against EP4 were 931 nM and 798 nM, respectively.

For the molecule `CCOc1cc(-c2cc(NCCc3ccc(F)cc3)ncn2)sc1C(=O)O` [Example 80, 3-Ethoxy-5-{6-[2-(4-fluoro-phenyl)-ethylamino]-pyrimidin-4-yl}-thiophene-2-carboxylic acid], the IC50 against EP2 was 255 nM; on EP4 it was 366 nM.

As for `CCOc1cc(-c2cc(NCCc3ccc(Br)cc3)ncn2)sc1C(C)O` (stereo not drawn) [Example 145, 1-(5-{6-[2-(4-Bromo-phenyl)-ethylamino]-pyrimidin-4-yl}-3-ethoxy-thiophen-2-yl)-ethanol], the IC50 was 1120 nM against EP2 and 690 nM against EP4.

As to `CCOc1cc(-c2cc(NCCc3cc(C)c(C)cc3OC)ncn2)sc1C(=O)O` [Example 5, 3-Ethoxy-5-{6-[2-(2-methoxy-4,5-dimethyl-phenyl)-ethylamino]-pyrimidin-4-yl}-thiophene-2-carboxylic acid], the figures for the IC50 on EP2 and on EP4 were 45 nM and 6 nM, respectively.

As for `O=c1[nH]c(-c2cccc(-c3cc(NCCc4ccc(Br)cc4)ncn3)c2)no1` [Example 147, 3-(3-{6-[2-(4-Bromo-phenyl)-ethylamino]-pyrimidin-4-yl}-phenyl)-[1,2,4]oxadiazol-5(4H)-one], the half-maximal inhibitory concentration (IC50) against EP2 amounted to 490 nM; against EP4, 834 nM.

Take `Oc1c(F)cc(-c2cc(NCCc3ccc(Br)cc3)ncn2)cc1F` [Example 12, 4-{6-[2-(4-Bromo-phenyl)-ethylamino]-pyrimidin-4-yl}-2,6-difluoro-phenol]: the IC50 at EP2 was determined as 885 nM; on EP4, 617 nM.

On to `COc1cc(-c2cc(NCCc3ccc(Br)cc3)ncn2)sc1C1(O)COC1` [Example 13, 3-(5-{6-[2-(4-Bromo-phenyl)-ethylamino]-pyrimidin-4-yl}-3-methoxy-thiophen-2-yl)-oxetan-3-ol], for which the IC50 came out at 294 nM against EP2 and 636 nM on EP4.
